Patent publication US20090054507A1, “CONTROL OF MALIGNANT CELLS BY KINASE INHIBITION” (CLEVELAND STATE UNIVERSITY, priority 2006, published 2009)

Key:
Type in all cases: cell-based, human
MEG-01 cells [1] = assay: Viability (proliferation) assay, Trypan blue exclusion, MEG-01
MEG-01 cells [2] = assay: Thrombocytopoiesis / proplatelet formation by microscopy
Protocol: Light microscopy (phase contrast) and DAPI fluorescence microscopy. High quality pictures and live imaging were obtained at Cleveland Clinic Imaging Core (Cleveland, Ohio). DAPI staining of cultured MEG-01 cells was performed with fresh cells. For live imaging (observing a single cell for a 24 hour period of time) of the thrombocytopoiesis process, MEG-01 suspension cells were made adherent by using Fibronectin (FN) coated culture dishes. FN was used, at 5 μg/cm^2 and incubated at 37° C. for 1 h, as recommended by the supplier (BD Biosciences, Bedford, Mass., USA).
Scanning electron microscopy (SEM). Cell preparation and pictures were performed at the Microscopy Core Facility (Cleveland Clinic). Cells were grown for 4 days in the presence of 10 μM DMAT and then collected by differential centrifugation. Cells were fixed in glutaraldehyde and then further processed at the Core. The clot was prepared with platelets collected from MEG-01 cultures treated with 10 μM DMAT. Human thrombin 0.5 U/ml for 15 minutes was used to activate them.

MEG-01 cells [3] = assay: Annexin V-FITC and PI apoptosis assay, MEG-01
Protocol: Flow cytometric analysis. Cells were analyzed using a FACSCalibur flow cytofluorometer (Becton-Dickinson), with CellQuestPro ver. 3.3 software. The data was further analyzed with FlowJo ver. 6.2, and WinMDI 2.8 software. Proper gating was performed to characterize each cell population (MEG-01 cells and platelets). The population that corresponds to platelets (small, granulated particles), is PI negative because thrombocytes are anucleated cells (only the viable cells were considered) and were distinguished by their capacity to become activated, undergoing shape change in response to agonist and to show phosphatidylserine (PS) exposure when activated. Platelets were further separated from the megakaryocytic cells, by differential centrifugation, considering the size difference between these cell populations (1-5 μm for platelets and 35-150 μm for megakaryocytic cell line MEG-01) and analyzed separately. Voltage and channels settings were adjusted accordingly. Analyzed values were obtained with WinMDI ver. 2.8.
Apoptosis Assays using Flow Cytometry with Annexin V-FITC and propidium iodide (PI). For induction of typical apoptosis, cells were grown in the presence of 1 μM staurosporine (Sigma-Aldrich) for 6 hours. The staurosporine treated cells were stained as follows: control 1 with PI, control 2 with Annexin V-FITC and control 3 both PI and Annexin V-FITC in order to have the brightest controls for compensation and proper collection of the flow cytometry data. Cell necrosis was induced by heat shock (65° C. for 30 minutes). The stained control, both PI and Annexin V-FITC labeled, was then used as the reference in establishing the level of apoptosis induced by the treatments. Data was collected on logarithmic modes, two-colors. Annexin V-FITC corresponds to FL1 H channel, and PI to FL3H or FL2H channels.
Annexin V-FITC and PI apoptosis assay staining protocol. Apoptosis Annexin V-FITC and PI kit from BD Biosciences, CA, USA, was used. 10^5-10^6 cells were stained with 50 μg/ml PI and with 0.5 μg/ml FITC-labeled Annexin V using the staining protocol provided by the supplier. Samples were then analyzed immediately by flow cytometry.

SMILES | proliferation of MEG-01 cells (Trypan Blue exclusion) (MEG-01 cells [1]; 5 nM PMA, five days of treatment) | cell number / proliferation rate of MEG-01 cells (MEG-01 cells [1]; 100 μM TBB, 4 days of treatment) | thrombocytopoiesis (MEG-01 cells [2]) | cytotoxicity (necrosis) in MEG-01 cells (MEG-01 cells [3]) | dose and time dependence of induced apoptosis and phenotype change (MEG-01 cells [3]; 24 to 96 hours)
CCCCCCCCCCCCCC(=O)O[C@@H]1[C@@H](C)[C@@]2(O)[C@@H](C=C(CO)C[C@]3(O)C(=O)C(C)=C[C@@H]23)[C@@H]2C(C)(C)[C@]12OC(C)=O [PMA, Phorbol 12-myristate 13-acetate, reference compound] | a decrease in proliferation was observed | – | – | – | –
Brc1c(Br)c(Br)c2[nH]nnc2c1Br [TBB, 4,5,6,7-tetrabromobenzotriazole] | – | maintained a steady number of cells | induced thrombocytopoiesis | without being cytotoxic | dose and time dependent
